In patent US20020091086A1, “Peptides that block viral infectivity and methods of use thereof” (priority 1999, published 2002):
Like-named read-outs stand apart in the source and are kept apart here. Marks after values point to notes of the source that are not given here.

Tests used:
SIV = SIV infectivity assay in H9 cells, RT activity in supernatant; assay type: cell-based
HIV-1 [1] = conditions: H9 cells; for HIV-1 Syncytia: 100 μM; for HIV-1 syncytia formation, result in words: summary of Experiments 1-2
From the text: (§1) In this example, the methods that were used to analyze the ability of various tripeptides to inhibit HIV-1, HIV-2, and SIV replication are disclosed. In Experiments 1 and 2, approximately 200,000 H9 cells were infected with HIV-1, HIV-2 or SIV at 25 TCID50 to test the inhibitory effect of the following synthesized tripeptides LKA-NH2, ILK-NH2, GPQ-NH2, GHK-NH2, GKG-NH2, ACQ-NH2, CQG-NH2, ARV-NH2, KAR-NH2, HKA-NH2, GAT-NH2, KAL-NH2, and GPG-NH2. Accordingly, the H9 cells were resuspended with or without the different peptides (approximately 100 μM) in 1 ml of RPMI 1640 medium supplemented with 10% (v/v) heat-inactivated fetal bovine serum (FBS), penicillin (100 u/ml), and streptomycin (100 u/ml), all available through GIBCO, and Polybrene (2 μg/ml), available through Sigma. Thereafter, viruses were added at 25 TCID50 in a volume of 20-30μl. Cells were incubated with virus at 37° C. for 1 hr then pelleted at 170×g for 7 minutes. The cells were then washed three times in RPMI medium without peptides at room temperature and pelleted at 170×g for 7 minutes, as above. After the final wash, the cells were resuspended in RPMI culture medium containing the peptides in a 24-well plate (Costar corporation) and were kept at 37° C. in 5% CO2 with humidity.
(§2) Culture supernatants were collected and analyzed when the medium was changed at 4, 7, 10, and 14 days post infection. To monitor the replication of virus, reverse transcriptase (RT) activity in the supernatants was assayed using a commercially available Lenti-RT activity kit. (Cavidi Tech, Uppsala, Sweden). The amount of RT was determined with the aid of a regression line of standards. The results are presented as absorbance values (OD) and higher absorbance indicates a higher protein concentration and greater viral infection. Syncytium formation was also monitored by microscopic examination.

HIV-1 [2] = conditions: H9 cells; for Day 7 RT HIV-1 / Day 10 RT HIV-1: 100 μM; for HIV-1 infection, result in words: summary of Experiments 1-5
From the text: as §1, §2
In Experiment 3, (Table 4), approximately 200,000 H9 cells were infected with HIV-1, HIV-2 or SIV at 25 TCID50 to test the inhibitory effect of different concentrations of peptides GPG-NH2, GKG-NH2 and CQG-NH2 and combinations of these peptides (the indicated concentration corresponds to the concentration of each tripeptide). As above, H9 cells were resuspended with or without the different peptides at varying concentrations in 1 ml of RPMI 1640 medium supplemented with 10% (v/v) heat-inactivated fetal bovine serum (FBS), penicillin (100 u/ml), and streptomycin (100 u/ml), and Polybrene (2 μg/ml). Thereafter, viruses were added at 25 TCID50 in a volume of 20-30 μl. Cells were incubated with the indicated virus at 37° C. for 1 hr then pelleted at 170×g for 7 minutes. The cells were then washed three times in RPMI medium without peptides at room temperature and pelleted at 170×g for 7 minutes, as above. After the final wash, the cells were resuspended in RPMI culture medium containing the peptides in a 24-well plate (Costar corporation) and kept at 37° C. in 5% CO2 with humidity.
Culture supernatants were collected when the medium was changed at 4, 7, and 11 days post infection. As above, the replication of each virus was monitored by detecting reverse transcriptase (RT) activity in the supernatants using the Lenti-RT activity kit. (Cavidi Tech). The amount of RT was determined with the aid of a regression line of standards. The results are presented as absorbance values (OD) and higher absorbance indicates a higher protein concentration and greater viral infection.
In Experiment 4, (Table 5) approximately 200,000 H9 cells were infected with HIV-1 at 25 TCID50 to test the inhibitory effect of different concentrations of peptides GPG-NH2, GKG-NH2 and CQG-NH2 and combinations of these peptides (the indicated concentration corresponds to the total concentration of tripeptide).

HIV-2 = HIV-2 infectivity assay in H9 cells, RT activity in supernatant; assay type: cell-based

Substance | Day 7 RT SIV (SIV; Experiment 1, 100 μM) [OD] | Day 10 RT SIV (SIV; Experiment 1, 100 μM) [OD] | Day 7 RT SIV (SIV; Experiment 2, 100 μM) [OD] | Day 10 RT SIV (SIV; Experiment 2, 100 μM) [OD] | HIV-1 Syncytia (HIV-1 [1]; Experiment 1) | HIV-1 Syncytia (HIV-1 [1]; Experiment 2) | Day 7 RT HIV-1 (HIV-1 [2]; Experiment 1) | Day 10 RT HIV-1 (HIV-1 [2]; Experiment 1) [OD] | Day 7 RT HIV-1 (HIV-1 [2]; Experiment 2) | Day 10 RT HIV-1 (HIV-1 [2]; Experiment 2) [OD] | HIV-1 infection, result in words (HIV-1 [2]) | Day 7 RT HIV-2 (HIV-2; Experiment 1, 100 μM) [OD] | Day 10 RT HIV-2 (HIV-2; Experiment 1, 100 μM) [OD] | Day 7 RT HIV-2 (HIV-2; Experiment 2, 100 μM) [OD] | Day 10 RT HIV-2 (HIV-2; Experiment 2, 100 μM) [OD] | HIV-1 syncytia formation, result in words (HIV-1 [1])
Ala-Arg-Val [ARV-NH2] | 0.210 | 1.172 | 0.212 | 3.004 | pos | pos | 0.156 OD | 1.528 | 0.618 OD | 2.829 | failed to prevent infection | 3.380 | 3.003 | 2.237 | 2.628 | 
Ala-Cys-Gln [ACQ-NH2] | 1.241 | 2.746 | 0.612 | 2.606 | pos | pos | 0.117 OD | 0.904 | 0.606 OD | 2.831 | did not prevent HIV infection | 3.418 | 2.753 | 1.661 | 2.505 | 
Gly-Ala-Thr [GAT-NH2] | 0.892 | 2.343 | 0.572 | 2.776 | pos | pos | 0.116 OD | 1.565 | 0.776 OD | 2.800 | failed to prevent infection | 3.461 | 2.835 | 1.707 | 2.565 | failed to prevent infection and HIV-1 syncytia formation
Gly-His-Lys [GHK-NH2] | 0.097 | 2.384 | 0.396 | 2.394 | pos | pos | 0.289 OD | 2.151 | 0.829 OD | 3.013 | failed to prevent infection | 3.522 | 2.931 | 1.936 | 2.418 | failed to prevent infection and HIV-1 syncytia formation
Gly-Pro-Gln [GPQ-NH2] | 1.542 | 2.176 | 0.574 | 2.319 | pos | pos | 0.204 OD | 1.965 | 0.884 OD | 2.848 | did not prevent HIV infection | 3.692 | 2.734 | 1.511 | 2.382 | failed to prevent infection and HIV-1 syncytia formation
His-Lys-Ala [HKA-NH2] | 0.416 | 2.520 | 0.455 | 2.623 | pos | pos | 0.312 OD | 2.546 | 1.081 OD | 2.794 | did not prevent HIV infection | 3.408 | 2.669 | 1.678 | 2.560 | 
Iso-Leu-Lys [ILK-NH2] | 3.180 | 2.255 | 0.515 | 2.632 | pos | pos | 0.365 OD | 2.033 | 0.581 OD | 2.950 |  | 3.467 | 2.791 | 1.692 | 2.557 | 
Leu-Lys-Ala [LKA-NH2] | 3.577 | 2.452 | 0.724 | 2.797 | pos | pos | 0.568* OD | 2.429 | 0.894* OD | 2.989 | did not prevent HIV infection | 3.649 | 2.769 | 1.689 | 2.637 | 
Lys-Ala-Arg [KAR-NH2] | 0.266 | 1.722 | 1.034 | 2.672 | pos | pos | 0.380 OD | 2.779 | 0.753 OD | 2.928 |  | 3.419 | 2.640 | 1.904 | 2.742 | 
